Data set [1] deals with Coturnix japonica. The settings on record: chronic.
Data set [2] has as its system Colinus virginianus. The settings on record: acute; oral; mortality.
For data set [3], the system named is Apis mellifera. The settings on record: acute, mortality.
The subject of data set [4] is Pimephales promelas. The settings on record: chronic/long-term; duration: 28 days.
The subject of data set [5] is Oncorhynchus mykiss. The settings on record: acute; duration: 96 hours; mortality.
The test system of data set [6] is Rattus norvegicus.
The test system of data set [7] is Hypoaspis aculeifer. The settings on record: chronic/long-term; reproduction.
The test system of data set [8] is Tagia sp. The settings on record: chronic/long-term; reproduction.
Data set [9] has as its system Bibionidae. The settings on record: chronic/long-term; duration: 23 days; reproduction.
For data set [10], the system named is Anas platyrhynchos. The settings on record: acute; oral; unspecified; mortality.
Data set [11] concerns Aphidius rhopalosiphi. Put plainly: LR50; higher = less toxic. The settings on record: not reported; mortality.

Bounds are passed on as bounds.

In general, NOAEL refers to the highest dose or exposure tested at which no adverse effect was seen. The LC50 is the concentration lethal to half of the exposed cells or organisms. For `Cc1ccc(-c2c(Cl)nc(C#N)n2S(=O)(=O)N(C)C)cc1`, the NOAEL is 151 mg/kg-day in data set [1]; 17 mg/kg-day in data set [6] (chronic, duration: 2 years, organ weight); 89 mg/kg-day in [6] (reproduction developmental, body weight); 29.5 mg/kg-day in [6] (subchronic, duration: 90 days, oral, organ weight). Further, the LD50 in data set [2] was greater than 2000 mg/kg-day; in [3] (dermal), 9.52 µg/piece; in data set [3] (oral, unspecified), greater than 31.8 µg/piece; in [6] (acute, oral, mortality) it was greater than 5000 mg/kg; in data set [10], greater than 2000 mg/kg-day. Moreover, the NOEC in [4] was 0.09 mg/L; in [7] it was 18.7 mg/kg; in data set [8], 2 mg/kg; in [9] it was 0.0117 mg/L. Also, the LC50 in data set [5] was greater than 0.107 µg/mL. The LR50 in [11] was greater than 209 g/ha.

These data come from EPA's ToxValDB 9.5 (doi:10.2903/j.efsa.2016.4503).
